Measured values as given in ChEMBL document CHEMBL5620423, “Highly-tumor-targeted PAD4 inhibitors with PBA modification inhibit tumors in vivo by specifically inhibiting the PAD4-H3cit-NETs pathway in neutrophils” (Eur J Med Chem, 2023).

Legend:
[1] = system: 4T1; test: Cytotoxicity against mouse 4T1 cells assessed as reduction in cell viability measured after 48 hrs by MTT assay; conditions: 4T1, 48 h
[2] = system: Sarcoma-180; test: Antitumor activity against Sarcoma-180 mouse model assessed as tumor weight at 2 umol/kg (reference value: 1.65 +/-0.2 gms); assay type: functional; conditions: dose 2 µmol/kg
[3] = system: Sarcoma-180; test: Antitumor activity against Sarcoma-180 mouse model assessed as inhibition of tumor growth at 2 umol/kg; assay type: functional
[4] = system: Sarcoma-180; test: Antitumor activity against Sarcoma-180 mouse model assessed as tumor weight at 10 umol/kg (reference value: 1.65 +/-0.2 gms); assay type: functional; conditions: dose 10 µmol/kg
[5] = system: Sarcoma-180; test: Antitumor activity against Sarcoma-180 mouse model assessed as inhibition of tumor growth at 10 umol/kg; assay type: functional

| Structure (SMILES) | IC50 [1] | Activity [2] | inhibition in vivo at 2 µmol/kg [3] | Activity [4] | inhibition in vivo at 10 µmol/kg [5] |
| --- | --- | --- | --- | --- | --- |
| COc1cccc2c1C(=O)c1c(O)c3c(c(O)c1C2=O)C[C@@](O)(C(=O)CO)C[C@@H]3O[C@H]1C[C@H](N)[C@H](O)[C@H](C)O1 [DOXORUBICIN] | 1.63 µM | 0.94 g | 42.7% | – | – |
| N=C(CCl)NCCC[C@H](NC(=O)c1cccc(B(O)O)c1F)C(=O)NCc1ccccc1 | > 100 µM | – | – | 0.93 g | 43.7% |
| N=C(CCl)NCCC[C@H](NC(=O)c1ccc(B(O)O)cc1)C(=O)NCc1ccccc1 | > 100 µM | – | – | 0.98 g | 40.3% |
| N=C(CCl)NCCC[C@H](NC(=O)c1cc([N+](=O)[O-])c2nonc2c1)C(=O)NCc1ccc(B(O)O)cc1 | > 100 µM | – | – | 0.87 g | 47.4% |
| N=C(CCl)NCCC[C@H](NC(=O)c1cc(B(O)O)ccc1F)C(=O)NCc1ccccc1 | > 100 µM | – | – | 1.14 g | 30.8% |
| N=C(CCl)NCCC[C@H](NC(=O)c1cc([N+](=O)[O-])c2nonc2c1)C(=O)NCc1ccccc1B(O)O | > 100 µM | – | – | 0.89 g | 45.7% |
| N=C(CCl)NCCC[C@H](NC(=O)c1cc(B(O)O)cc([N+](=O)[O-])c1)C(=O)NCc1ccccc1 | > 100 µM | – | – | 1.19 g | 27.6% |
